Values quoted from earlier work in patent US8497290B2, “Thiocolchicine derivatives, method of making and methods of use thereof” (priority 2009, dated 2013).

Test system: rat model
Settings: metabolites of thiocolchicoside, compared with thiocolchicoside

For `COc1c(O[C@@H]2O[C@H](C(=O)O)[C@@H](O)[C@H](O)[C@H]2O)cc2c(c1OC)-c1ccc(SC)c(=O)cc1[C@@H](NC(C)=O)CC2` [3-O-glucuronidated aglycone derivative, (7S)-7-(acetylamino)-5,6,7,9-tetrahydro-1,2-dimethoxy-10-(methylthio)-9-oxobenzo[a]heptalen-3-yl β-D-glucopyranosiduronic acid], the muscle relaxant activity is given as “muscle relaxant activity similar to that of thiocolchicoside”.
